Source: EPA's ToxValDB 9.5

Key:
[1] = system: Mus musculus; details: oral
[2] = system: Rattus norvegicus; details: oral
[3] = acute, duration: 1 days, gavage, F, Body Weight: 12% decreased body weight 30 days post-exposure + Endocrine: 2-fold increase in T3 and 4-fold increase in T4 levels 30 days …
[4] = developmental, duration: 10 days, gavage, F, Body Weight: No weight gain at 6.4 mg/kg/day and weight loss at 12.8 mg/kg/day (net change of -2.4)
[5] = developmental, duration: 10 days, gavage, F, Developmental: 18-22% decreases in fetal weight per litter at ?1 mg/kg/day / decreases in live fetuses per litter at 12.8 mg/kg/day (4.6 …
[6] = short-term, duration: 4 weeks, F, B6C3F1, Immunotoxicological: Decreases in splenic T-cells, T-cell subsets, and macrophages
[7] = short-term, duration: 1 weeks, diet, M, Wistar, Body Weight: ~32% weight loss
[8] = short-term, duration: 28 days, F, Sprague-Dawley, Body Weight: Decreased body weight gain (21%)
[9] = short-term, duration: 28 days, F, Sprague-Dawley, Hematological: Decreased MCH and MCHC + Immunotoxicological: Decreased phagocytosis by fixed tissue macrophages in the liver
[10] = short-term, duration: 28 days, F, Sprague-Dawley, Hepatic: Single cell necrosis

## O=C(O)C(F)(F)C(F)(F)C(F)(F)C(F)(F)C(F)(F)C(F)(F)C(F)(F)C(F)(F)C(F)(F)F [Perfluorodecanoic acid]
[1]; [3]
  LOAEL: 80 mg/kg-day
  NOAEL: 40 mg/kg-day
[1]; acute, duration: 1 days, gavage, F, Cardiovascular: No histological alterations in the heart 30 days post-exposure / decreased relative heart weight at 80 mg/kg/day + Hepatic…
  NOAEL: 80 mg/kg-day
[1]; acute, duration: 1 days, gavage, F, Death: LD50 in 30-day observation period
  LOAEL: 120 mg/kg-day
[1]; acute, duration: 1 days, gavage, F, Hepatic: Increase in hepatic lipids and liver weight 2 days post-exposure at 40 mg/kg/day
  NOAEL: 160 mg/kg-day
[1]; acute, duration: 1 days, gavage, F, Immunotoxicological: 28% decrease in relative spleen weight at 80 mg/kg/day / atrophy and lymphoid depletion in thymus and spleen at 160 mg…
  LOAEL: 160 mg/kg-day
[1]; developmental, duration: 1 days, gavage, M, CD1, Developmental: No alteration in spontaneous activity or habituation at 2-4 months of age
  NOAEL: 10.8 mg/kg-day
[1]; [4]
  LOAEL: 6.4 mg/kg-day
  NOAEL: 3 mg/kg-day
[1]; developmental, duration: 10 days, gavage, F, Body Weight: No weight gain at 6.4 mg/kg/day and weight loss at 12.8 mg/kg/day (net change of -2.4) + Developmental: 18-22% decreases in …
  LOAEL: 12.8 mg/kg-day
[1]; [5]
  LOAEL: 1 mg/kg-day
  NOAEL: 0.3 mg/kg-day
[1]; short-term, duration: 4 weeks, F, B6C3F1
  NOAEL: 5 mg/kg-day
[1]; [6]
  LOAEL: 1.25 mg/kg-day
  NOAEL: 0.625 mg/kg-day
[1]; short-term, duration: 10 days, diet, M, Body Weight: 33% weight loss
  LOAEL: 78 mg/kg-day
[1]; short-term, duration: 10 days, diet, M, Hepatic: 36% increase in liver weight
  NOAEL: 78 mg/kg-day
[2]; acute, duration: 1 days, gavage, M, Wistar, Body Weight: 8% weight loss was observed 10-days post-exposure
  LOAEL: 50 mg/kg-day
[2]; acute, duration: 1 days, gavage, M, Wistar, Neurological: No alteration in performance on novel object recognition test
  NOAEL: 50 mg/kg-day
[2]; [7]
  LOAEL: 9.5 mg/kg-day
  NOAEL: 4.7 mg/kg-day
[2]; short-term, duration: 1 weeks, diet, M, Wistar, Hepatic: Increases in liver weight at ?2.4 mg/kg/day / increases in hepatic cholesterol at 9.5 mg/kg/day
  NOAEL: 9.5 mg/kg-day
[2]; [8]
  LOAEL: 1 mg/kg-day
  NOAEL: 0.5 mg/kg-day
[2]; [9]
  LOAEL: 0.25 mg/kg-day
  NOAEL: 0.125 mg/kg-day
[2]; [10]
  LOAEL: 0.5 mg/kg-day
  NOAEL: 0.25 mg/kg-day
